Read-outs that look alike come from different tables or passages of the source.
Columns and labels:
C2C12 myotubes = settings: for Viability (composite Z-score): normalized score vs mock-treated (DMSO) wells
[1] = test system: mitochondrial membrane potential; assay type: cell-based, mouse; settings: for ΔΨm (composite Z-score): normalized score vs mock-treated (DMSO) wells
cytochrome c = assay type: cell-based, mouse; settings: for cyt c (composite Z-score): normalized score vs mock-treated (DMSO) wells
nuOXPHOS transcripts = assay type: cell-based, mouse; settings: for nucOX (composite Z-score): normalized score vs mock-treated (DMSO) wells
reactive oxygen species = assay type: cell-based, mouse; settings: for ROS (composite Z-score): normalized score vs mock-treated (DMSO) wells
OXPHOS gene expression = assay type: cell-based, mouse; settings: for GE-HTS (composite Z-score): normalized score vs mock-treated (DMSO) wells
mtOXPHOS transcripts = assay type: cell-based, mouse; settings: for mitoOX (composite Z-score): normalized score vs mock-treated (DMSO) wells
[2] = test system: cellular dehydrogenase activity; settings: for MTT (composite Z-score): normalized score vs mock-treated (DMSO) wells
[3] = composite Z-score vs DMSO, Conc 20 μM
[4] = composite Z-score vs mock-treated (DMSO) wells, Conc 20 μM
[5] = composite Z-score vs DMSO wells, Conc 20 μM
[6] = 20 μM, composite Z-score vs DMSO
[7] = 12.18 μM, composite Z-score vs DMSO

**Q.** How did the “Viability (composite Z-score)” value (C2C12 myotubes; Conc 20 μM) turn out when `N#Cc1c(Cl)c(Cl)c(Cl)c(C#N)c1Cl` [tetrachloroisophthalonitrile] was run?
**A.** Its value is −5.297.

**Q.** And the “ΔΨm (composite Z-score)” value ([1]; Conc 20 μM)?
**A.** Its value is −4.269.

**Q.** And the “cyt c (composite Z-score)” value (cytochrome c; Conc 20 μM)?
**A.** The value was −5.292.

**Q.** What about the “nucOX (composite Z-score)” value (nuOXPHOS transcripts; Conc 20 μM) of the same compound?
**A.** The value was −3.990.

**Q.** What about the “ROS (composite Z-score)” value (reactive oxygen species; Conc 20 μM) of the same compound?
**A.** Its value is −3.975.

**Q.** What about the “GE-HTS (composite Z-score)” value (OXPHOS gene expression; Conc 20 μM) of the same compound?
**A.** The value was −3.510.

**Q.** And the “mitoOX (composite Z-score)” value (mtOXPHOS transcripts; Conc 20 μM)?
**A.** The value was −1.780.

**Q.** What about the “MTT (composite Z-score)” value ([2]; Conc 20 μM) of the same compound?
**A.** Its value is −6.675.

**Q.** With `CC(=O)OCC(=O)[C@@]1(O)CCC2C3CC[C@@H]4C[C@H](OC(C)=O)CC[C@]4(C)C3C(=O)C[C@@]21C` (some centres unmarked) [tetrahydrocortisone-3,21-diacetate] as the compound, how does the Viability (C2C12 myotubes; [3]) read?
**A.** Its Viability is −0.030.

**Q.** What about the ΔΨm [1, 3] of the same compound?
**A.** The ΔΨm was 0.074.

**Q.** And the cyt c (cytochrome c; [3])?
**A.** The cyt c was −0.397.

**Q.** What about the nucOX (nuOXPHOS transcripts; [3]) of the same compound?
**A.** The nucOX was −0.558.

**Q.** And the ROS (reactive oxygen species; [3])?
**A.** Its ROS is 0.456.

**Q.** And the GE-HTS (OXPHOS gene expression; [3])?
**A.** Its GE-HTS is −0.320.

**Q.** What about the mitoOX (mtOXPHOS transcripts; [3]) of the same compound?
**A.** The mitoOX was 0.269.

**Q.** And the MTT [2, 3]?
**A.** Its MTT is −0.664.

**Q.** Which Viability (C2C12 myotubes; [4]) does the source give for `CC(C)=CCCC1(C)C=Cc2c(O)c3c(c(CC=C(C)C)c2O1)OC12C(CC4CC1C(C)(C)OC2(C/C=C(/C)C(=O)O)C4O)C3=O` (centres unmarked) [tetrahydrogambogic acid] here?
**A.** The Viability was 1.434.

**Q.** And the ΔΨm [1, 4]?
**A.** Its ΔΨm is −1.438.

**Q.** What about the cyt c (cytochrome c; [4]) of the same compound?
**A.** The cyt c was −0.932.

**Q.** And the nucOX (nuOXPHOS transcripts; [4])?
**A.** Its nucOX is −0.409.

**Q.** What about the ROS (reactive oxygen species; [4]) of the same compound?
**A.** Its ROS is 0.460.

**Q.** And the GE-HTS (OXPHOS gene expression; [4])?
**A.** The GE-HTS was −0.478.

**Q.** And the mitoOX (mtOXPHOS transcripts; [4])?
**A.** Its mitoOX is −0.490.

**Q.** And the MTT [2, 4]?
**A.** The MTT was −1.090.

**Q.** What does the source list for `O=C1C(O)=C(O)C(=O)C(O)=C1O` [tetroquinone]?
**A.** Viability (C2C12 myotubes; [5]): 0.088; ΔΨm [1, 5]: −0.424; cyt c (cytochrome c; [5]): 0.386; nucOX (nuOXPHOS transcripts; [5]): 0.028; ROS (reactive oxygen species; [5]): 0.638; GE-HTS (OXPHOS gene expression; [5]): 0.067; mitoOX (mtOXPHOS transcripts; [5]): 0.112; MTT [2, 5]: −0.574

**Q.** What does the source list for `O=c1c(O)cccc2c([C@H]3Oc4cc(O)cc(O)c4C[C@H]3O)cc(O)c(O)c12` [theaflavanin]?
**A.** Viability (composite Z-score) (C2C12 myotubes; Conc 20 μM): −1.349; ΔΨm (composite Z-score) ([1]; Conc 20 μM): −2.074; cyt c (composite Z-score) (cytochrome c; Conc 20 μM): −0.166; nucOX (composite Z-score) (nuOXPHOS transcripts; Conc 20 μM): −0.764; ROS (composite Z-score) (reactive oxygen species; Conc 20 μM): −0.040; GE-HTS (composite Z-score) (OXPHOS gene expression; Conc 20 μM): −0.695; mitoOX (composite Z-score) (mtOXPHOS transcripts; Conc 20 μM): −0.333; MTT (composite Z-score) ([2]; Conc 20 μM): −0.665

**Q.** `CCNC(=O)CC[C@H](N)C(=O)O` [theanine] was tested. Which Viability (C2C12 myotubes; [3]) did it give?
**A.** The Viability was −0.613.

**Q.** And the ΔΨm [1, 3]?
**A.** The ΔΨm was −0.557.

**Q.** And the cyt c (cytochrome c; [3])?
**A.** The cyt c was 0.244.

**Q.** And the nucOX (nuOXPHOS transcripts; [3])?
**A.** Its nucOX is −1.209.

**Q.** And the ROS (reactive oxygen species; [3])?
**A.** The ROS was 0.615.

**Q.** And the GE-HTS (OXPHOS gene expression; [3])?
**A.** Its GE-HTS is −1.153.

**Q.** And the mitoOX (mtOXPHOS transcripts; [3])?
**A.** The mitoOX was −0.778.

**Q.** What about the MTT [2, 3] of the same compound?
**A.** The MTT was −0.851.

**Q.** What does the source list for `Cn1cnc2c1c(=O)[nH]c(=O)n2C` [theobromine]?
**A.** Viability (C2C12 myotubes; [5]): −0.264; ΔΨm [1, 5]: −0.847; cyt c (cytochrome c): 0.007; cyt c (cytochrome c; [5]): −0.026; nucOX (nuOXPHOS transcripts; [5]): −0.449; ROS (reactive oxygen species; [5]): 0.179; GE-HTS (OXPHOS gene expression; [5]): −0.561; mitoOX (mtOXPHOS transcripts; [5]): −0.609; MTT [2, 5]: −0.982

**Q.** For `CN(C)C(=S)SSC(=S)N(C)C` [thiram], which Viability (C2C12 myotubes; [6]) is on record?
**A.** Its Viability is −5.812.

**Q.** And the ΔΨm [1, 6]?
**A.** Its ΔΨm is −4.011.

**Q.** And the cyt c (cytochrome c; [6])?
**A.** Its cyt c is −4.853.

**Q.** And the nucOX (nuOXPHOS transcripts; [6])?
**A.** Its nucOX is −2.770.

**Q.** And the ROS (reactive oxygen species; [6])?
**A.** Its ROS is −3.915.

**Q.** And the GE-HTS (OXPHOS gene expression; [6])?
**A.** Its GE-HTS is −2.420.

**Q.** What about the mitoOX (mtOXPHOS transcripts; [6]) of the same compound?
**A.** The mitoOX was −1.220.

**Q.** And the MTT [2, 6]?
**A.** Its MTT is −6.222.

**Q.** Which Viability (C2C12 myotubes; [7]) does the source give for `CCN(CC)CCNC(=O)c1cc(S(C)(=O)=O)ccc1OC` [tiapride] here?
**A.** The Viability was −1.454.

**Q.** And the Viability (C2C12 myotubes; [6])?
**A.** Its Viability is 1.174.

**Q.** And the ΔΨm [1, 7]?
**A.** The ΔΨm was −0.800.

**Q.** What about the ΔΨm [1, 6] of the same compound?
**A.** The ΔΨm was 0.171.

**Q.** What about the cyt c (cytochrome c; [7]) of the same compound?
**A.** The cyt c was 0.917.

**Q.** What about the cyt c (cytochrome c; [6]) of the same compound?
**A.** Its cyt c is −0.107.

**Q.** And the nucOX (nuOXPHOS transcripts; [7])?
**A.** The nucOX was 0.416.

**Q.** And the nucOX (nuOXPHOS transcripts; [6])?
**A.** The nucOX was −0.220.

**Q.** What about the ROS (reactive oxygen species; [7]) of the same compound?
**A.** Its ROS is 0.653.

**Q.** What about the ROS (reactive oxygen species; [6]) of the same compound?
**A.** Its ROS is −0.466.

**Q.** What about the GE-HTS (OXPHOS gene expression; [7]) of the same compound?
**A.** The GE-HTS was 0.341.

**Q.** And the GE-HTS (OXPHOS gene expression; [6])?
**A.** Its GE-HTS is −0.283.

**Q.** What about the mitoOX (mtOXPHOS transcripts; [7]) of the same compound?
**A.** Its mitoOX is 0.086.

**Q.** What about the mitoOX (mtOXPHOS transcripts; [6]) of the same compound?
**A.** Its mitoOX is −0.355.

**Q.** And the MTT [2, 7]?
**A.** Its MTT is −1.563.

**Q.** What about the MTT [2, 6] of the same compound?
**A.** The MTT was −0.646.

**Q.** `C[C@H]1CC[C@]2(NC1)O[C@H]1C[C@H]3[C@@H]4CC[C@H]5C[C@@H](O)CC[C@]5(C)[C@H]4CC[C@]3(C)[C@H]1[C@@H]2C` [tomatidine] was tested. Which Viability (C2C12 myotubes; [3]) did it give?
**A.** Its Viability is 0.490.

**Q.** And the ΔΨm [1, 3]?
**A.** Its ΔΨm is −0.425.

**Q.** What about the cyt c (cytochrome c; [3]) of the same compound?
**A.** The cyt c was 0.913.

**Q.** What about the cyt c (cytochrome c; composite Z-score vs mock-treated (DMSO) wells, concentration of each compound in μM) of the same compound?
**A.** Its cyt c is 1.135.

**Q.** And the nucOX (nuOXPHOS transcripts; [3])?
**A.** Its nucOX is −1.473.

**Q.** What about the ROS (reactive oxygen species; [3]) of the same compound?
**A.** Its ROS is 1.323.

**Q.** And the GE-HTS (OXPHOS gene expression; [3])?
**A.** Its GE-HTS is −1.375.

**Q.** And the mitoOX (mtOXPHOS transcripts; [3])?
**A.** The mitoOX was −0.857.

**Q.** And the MTT [2, 3]?
**A.** The MTT was −1.376.

**Q.** For `C[C@H]1CC[C@]2(NC1)O[C@H]1C[C@H]3[C@@H]4CC[C@H]5C[C@@H](O[C@@H]6O[C@H](CO)[C@H](O[C@@H]7O[C@H](CO)[C@@H](O)[C@H](O[C@@H]8OC[C@@H](O)[C@H](O)[C@H]8O)[C@H]7O[C@@H]7O[C@H](CO)[C@@H](O)[C@H](O)[C@H]7O)[C@H](O)[C@H]6O)CC[C@]5(C)[C@H]4CC[C@]3(C)[C@H]1[C@@H]2C` [tomatine], which Viability (C2C12 myotubes; [3]) is on record?
**A.** The Viability was −4.793.

**Q.** What about the ΔΨm [1, 3] of the same compound?
**A.** The ΔΨm was −2.423.

**Q.** What about the cyt c (cytochrome c; [3]) of the same compound?
**A.** Its cyt c is −3.979.

**Q.** And the nucOX (nuOXPHOS transcripts; [3])?
**A.** The nucOX was −2.158.

**Q.** And the ROS (reactive oxygen species; [3])?
**A.** Its ROS is −2.084.

**Q.** And the GE-HTS (OXPHOS gene expression; [3])?
**A.** Its GE-HTS is −2.151.

**Q.** What about the mitoOX (mtOXPHOS transcripts; [3]) of the same compound?
**A.** Its mitoOX is −1.725.

**Q.** What about the MTT [2, 3] of the same compound?
**A.** Its MTT is −4.122.

— patent US20090143279A1 (priority 2007, published 2009)
